Results: patent publication US10806744B2, “Edible composition” (Conopco, Inc., priority 2015, dated 2020)
“And” between values parts separate entries of the source, which are not always exact repeats. Equal values may be shown once.

Experiments:
[1] = biological target: T1, GLUT2 (Homo sapiens, UniProt P11168); test: Glucose transport inhibitor cell screening assay, 25 mM D-glucose for 30 minutes; conditions: for inhibition at 300 µM: Caco-2, read-out: % Glucose transport inhibiton 25 mM; for identified as inhibitors of GLUT2: Caco-2 cell assay
T1 sequence (P11168 1-524): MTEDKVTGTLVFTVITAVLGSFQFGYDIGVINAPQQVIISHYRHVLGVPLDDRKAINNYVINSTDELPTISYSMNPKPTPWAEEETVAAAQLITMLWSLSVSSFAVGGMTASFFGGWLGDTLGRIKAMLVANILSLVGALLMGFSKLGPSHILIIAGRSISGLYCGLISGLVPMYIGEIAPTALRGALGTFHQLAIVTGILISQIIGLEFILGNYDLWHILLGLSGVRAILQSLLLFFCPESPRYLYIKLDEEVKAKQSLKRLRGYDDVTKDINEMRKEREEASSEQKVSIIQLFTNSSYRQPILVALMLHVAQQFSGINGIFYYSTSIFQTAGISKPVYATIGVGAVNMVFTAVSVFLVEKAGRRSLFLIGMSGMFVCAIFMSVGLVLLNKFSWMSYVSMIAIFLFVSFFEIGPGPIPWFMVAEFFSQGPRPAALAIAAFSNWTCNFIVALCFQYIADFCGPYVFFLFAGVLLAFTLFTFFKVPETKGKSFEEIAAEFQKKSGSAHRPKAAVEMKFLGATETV
Protocol: (§1) Human epithelial colorectal adenocarcinoma (Caco-2) cells were obtained from the American Type Culture Collection (ATCC) and cultured in Growth Medium consisting of Dulbecco's modified Eagle's medium (containing Glutamax-1, 4.5 g/L D-glucose and 25 mM 4-(2-hydroxyethyl)-1-piperazine ethanesulphonic acid (Hepes) (Invitrogen)), 10% foetal bovine serum (Sigma), 1% non-essential amino acids (Invitrogen) and 1 mM sodium pyruvate (Sigma)). The cells were routinely passaged at approximately 80% confluence using TrypLE™ Express Stable Trypsin-Like Enzyme (Invitrogen) to detach the cells, and seeded at approximately 114 cells per mm^2 in fresh tissue culture flasks. Only cells between the passage numbers 45 and 49 were used for experiments.
(§2) Corning® HTS Transwell® 96 well permeable insert supports (Sigma) were collagen coated with 40 μl of 50 μg/ml rat tail collagen type I (BD Biosciences) in 0.02 M acetic acid for one hour at room temperature under sterile conditions. The inserts were washed twice in phosphate buffered saline (PBS (Invitrogen)) and the Caco-2 cells seeded into the inserts at 1.0×10^6 cell/ml (75 μl per insert) in Growth Medium and 30 ml of Growth Medium added to the feeder plate below. The cells were left to attach to the collagen matrix and form monolayers over 48 hours at 37° C., 5% CO2. Both inserts and feeder plate were washed in PBS and the cells incubated with BD Entero-STIM™ Enterocyte Differentiation Medium containing MITO+™ Serum Extender solution (both BD Biosciences), 75 μl per insert and 30 ml in the feeder plate, for a further 48 hours at 37° C., 5% CO2.
(§3) Differentiated cell monolayers were washed gently in Dulbecco's Phosphate Buffered Saline containing CaCl2 and MgCl2 (PBS(+) (Invitrogen)) and the inserts transferred to a new Corning® HTS Transwell®-96 well receiver plate (Sigma). The cells were incubated with fresh PBS(+) (75 μl per insert and 225 μl per well) for 60 minutes at 37° C., 5% CO2. The PBS(+) was gently aspirated and replaced with 75 μl per insert of either 5 mM D-glucose (Sigma)±test compound or 25 mM D-glucose±test compound in triplicate and 225 μl per well of PBS(+) quickly added to each well. The 5 mM glucose wells and the 25 mM glucose wells were incubated at 37° C., 5% CO2 for 15 minutes and 30 minutes, respectively. […] The cell inserts were transferred to a new receiver plate, the supernatant gently aspirated from the cells and replaced with 100 μl of 100 μM of Lucifer Yellow (Sigma) solution to confirm the integrity of the monolayers. 225 μl of PBS(+) was added to each well and incubated at 37° C., 5% CO2 for 1 hour. The cell inserts were then discarded and the permeability of the membranes to Lucifer Yellow checked by measuring the fluorescence of the samples at 485 nm (excitation) and 530 nm (emission) on a Spectramax Gemini EM fluorescence microplate reader.
(§4) The amount of glucose transported across the cell monolayers was measured using a glucose assay based on Invitrogen's Amplex Red Glucose/Glucose oxidase Assay Kit. Briefly, 50 μl of each test sample was transferred to a black sided/clear bottom 96-well plate (Greiner Bio-One) to which 100 μl of reaction buffer (0.5 μl 10 mM Ampliflu Red, 1 μl 10 U/ml Horse Radish peroxidase, 1 μl 100 U/ml glucose oxidase and 97.5 μl PBS (all Sigma)) was added. After 10 minutes incubation at room temperature, the fluorescence of the samples was measured at 530 nm (excitation) and 590 nm (emission) on a Spectramax Gemini EM fluorescence microplate reader and the glucose concentration extrapolated from a standard curve.
(§5) At higher D-glucose concentrations, the SGLT1 transporter becomes saturated and consequently the majority of glucose transport across the monolayer is driven by the low affinity, high capacity GLUT2 transporter that is targeted to the apical membrane only following an initial SGLT1-dependent transport of glucose.

[2] = biological target: T2, SGLT1 (Homo sapiens, UniProt P13866); test: Glucose transport inhibitor cell screening assay, 5 mM D-glucose for 15 minutes; conditions: for inhibition at 300 µM: Caco-2, read-out: % Glucose transport inhibiton 5 mM
T2 sequence (P13866 1-664): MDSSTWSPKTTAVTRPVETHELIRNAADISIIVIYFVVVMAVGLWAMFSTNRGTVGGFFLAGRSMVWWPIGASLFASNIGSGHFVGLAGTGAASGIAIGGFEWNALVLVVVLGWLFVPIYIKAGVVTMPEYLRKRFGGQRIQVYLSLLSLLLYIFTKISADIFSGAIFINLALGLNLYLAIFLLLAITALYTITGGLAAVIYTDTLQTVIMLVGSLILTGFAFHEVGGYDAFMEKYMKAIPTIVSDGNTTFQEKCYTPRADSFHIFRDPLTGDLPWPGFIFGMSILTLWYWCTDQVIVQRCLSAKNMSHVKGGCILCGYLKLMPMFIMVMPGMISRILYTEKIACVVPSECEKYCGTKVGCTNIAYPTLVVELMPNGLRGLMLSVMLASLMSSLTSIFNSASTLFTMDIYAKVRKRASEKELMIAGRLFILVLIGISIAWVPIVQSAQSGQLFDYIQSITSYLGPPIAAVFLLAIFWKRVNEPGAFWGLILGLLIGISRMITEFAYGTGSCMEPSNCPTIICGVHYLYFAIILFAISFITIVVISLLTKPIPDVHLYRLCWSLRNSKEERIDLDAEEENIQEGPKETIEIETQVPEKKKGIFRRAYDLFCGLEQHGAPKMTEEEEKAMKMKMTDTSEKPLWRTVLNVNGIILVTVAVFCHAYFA
Protocol: as §1, §2, §3, §4, §5

[3] = test system: glucose transport across differentiated Caco-2 cell monolayers; test: Glucose transport cell model: 5 mM D-glucose 15 minutes, then 25 mM for 45 minutes, cumulative glucose transport; assay type: cell-based, human; parameters: unit not given here; conditions: duplicate
Protocol: Caco-2 cells were cultured and routinely passaged as described in Example 1.
After the last incubation, all of the retained PBS(+) from each step (i.e. at 15, 30, 45 and 60 minutes) was assayed for glucose levels as described in Example 1, and the total cumulative glucose transport calculated. The localised changes in luminal glucose concentrations described and illustrated in example 1 are mimicked in-vitro through an initial short incubation of differentiated Caco-2 cells with a low level of D-glucose (5 mM for 15 minutes) immediately followed by a sustained incubation with a high level of D-glucose (final concentration of 25 mM for 45 minutes).
In the above table, every test pairing of a homisoflavonoid (HIF) and a flavonoid monoglucoside (FM) has 5 values reported: • 1. No Compound (NC)+NC • 2.
Synergy is achieved when the inhibition caused by the combination of HIF and FM is greater than the sum of the inhibition due to HIF alone added to the inhibition due to FM alone.

[4] = test system: SGLT1 and GLUT2; test: Assigned class of transporter inhibited, from Caco-2 screening at 5 mM and 25 mM D-glucose; assay type: cell-based, human; conditions: from % inhibition at 5 mM and 25 mM D-glucose; compound 300 μM
[5] = homoisoflavonoid 5 uM alone, added at 25 mM glucose step (NC at 5 mM)

In the case of `Cc1c(O)cc2c(c1O)C(=O)C(Cc1ccc(O)cc1)CO2` (stereo not drawn) [EA1, 5,7-dihydroxy-3-(4′-hydroxybenzyl)-6-methylchroman-4-one], the inhibition at 300 µM [1] is reported as 66.6 ± 5.21%, the “identified as inhibitors of GLUT2” value [1] is reported as “inhibitors of GLUT2” and the inhibition at 300 µM [2] is reported as 90.7 ± 1.4%. The “Cumulative (AVE) glucose transport” value ([3]; homoisoflavonoid 2.5 uM alone, added at 25 mM glucose step (NC at 5 mM)) was 339.2, the “Cumulative (AVE) glucose transport” value [3, 5] was 284.6 and the “Cumulative (AVE) glucose transport” value ([3]; homoisoflavonoid 10 uM alone, added at 25 mM glucose step (NC at 5 mM)) was 301.50 and 232.03. For the same molecule, the “Class (assigned class of transporter inhibited)” value [4] was “GLUT2 (GLUT2 inhibitors having ≥20% inhibition at both 5 mM and 25 mM D-glucose levels)”.

With `COc1c(O[C@@H]2O[C@H](CO)[C@@H](O)[C@H](O)[C@H]2O)cc2occ(-c3ccc(O)cc3)c(=O)c2c1O` [Tectoridin] the inhibition at 300 µM [1] was 4.92 ± 2.08%, the inhibition at 300 µM [2] was 29.4 ± 0.62% and the “identified as inhibitors of SGLT1” value ([2]; Caco-2 cell assay) was “inhibitors of SGLT1”. For the same molecule, the “Cumulative (AVE) glucose transport” value ([3]; flavonoid monoglucoside 300 uM alone, added at 5 mM glucose step only (NC at 25 mM), listed as T) was 346.92 and 321.4 and 298.40, the “Cumulative (AVE) glucose transport” value ([3]; flavonoid monoglucoside 300 uM alone, added at 25 mM glucose step only (NC at 5 mM), listed as T) was 395.85 and 304.5 and 298.98 and the “Class (assigned class of transporter inhibited)” value [4] was “SGLT1”.

With `Cc1c(O)c(C)c2c(c1O)C(=O)[C@H](Cc1ccc3c(c1)OCO3)CO2` [MOA, methylophiopogonanone A] the inhibition at 300 µM [1] was 27.7 ± 3.7%, the “identified as inhibitors of GLUT2” value [1] was “inhibitors of GLUT2” and the inhibition at 300 µM [2] was 39.3 ± 2.17%. The “Cumulative (AVE) glucose transport” value [3, 5] was 231.69 and the “Class (assigned class of transporter inhibited)” value [4] was “GLUT2 (GLUT2 inhibitors having ≥20% inhibition at both 5 mM and 25 mM D-glucose levels)”.
